The record followed here is patent publication US11542481B2, “Morphinan N-demethylase isolated from the methylobacterium thebainfresser and methods of use thereof” (priority 2017, dated 2023).

The Km is the concentration of substrate that gives half-maximal velocity. The term Vmax denotes the top rate of the reaction or transport when substrate is in excess. The kcat is the maximal rate divided by the concentration of active sites.

Read-outs that look alike come from different tables or passages of the source.

Series [1] concerns MND enzyme. It counts as biochemical, Methylobacterium Thebainfresser. Conditions: for substrate acceptance / detectable N-demethylase activity (in words): overnight assays, purified MND enzyme from PLUSE cells. How it is done:
Samples were injected by the UFLCXR (Shimadzu) autosampler/pump system using a 0.5 ml/min flow rate prior to separation using a Gemini C-18 column (150×2.00 mm, 5μ, 110 Å; Phenomenex) and introduction into the QTRAP 6500. The program consisted of a binary gradient with solvent A (5% acetonitrile/5% MeOH/10 mM ammonium acetate/15 mM NH4OH) and solvent B (90% acetonitrile/10 mM ammonium acetate/15 mM NH4OH) and the following gradient: 0-2.0 min 0% B, 2.0-9.0 min 0-44% B, 9.0-11.0 min 44-100% solvent B, 11-13 min 100% B and 100-0% solvent B from 13-14 min and held at 0% B for an additional 8 min. EPI scans for each substrate and predicted product mass were included for each enzyme assay and source parameters were identical to those used for the QTRAP 4000 above except CE and DP which were based upon the optimum for each individual compound. Masses used can be found in table 3. Data were analyzed using Analyst 1.6.2.
Substrates were prepared in a 1 mM stock concentration then diluted to 100 μM working concentration for use in enzyme assays with the MND enzyme. […] No more than 15% ethanol was added to the 1 mM concentrations. […] All enzyme assays contained 30 mM potassium phosphate buffer pH 8.0, 7.5 μM substrate and 100 μl of purified MND enzyme (˜36 μg) in a total volume of 200 μl. Duplicate assays of each substrate using purified pET28a empty vector were performed as negative control and an assay containing thebaine and MND enzyme was used as a positive control. Assays were incubated at 30° C. overnight prior to ethyl acetate extraction. All samples were diluted 10 fold with 50% MeOH and analyzed on the QTRAP 6500 using method 2 and a 20 μl injection volume. The percentage of substrate demethylation was calculated based upon reduction of substrate in the enzyme assay as compared to the negative control.
Purified MND enzyme from PLUSE cells was used to test various substrates containing a methylated nitrogen (FIG. 16) in overnight assays.

Series [2] has as its system MND enzyme. The experiment in a line: Purified MND enzyme assay using thebaine as substrate. In kind it is biochemical, Methylobacterium Thebainfresser. How it is done: […]. No enzyme, boiled enzyme, and purified empty vector controls were included. MND enzyme was heated for 10 min at 95° C. for the boiled enzyme control. Assays were extracted twice with 400 μl ethyl acetate and dried to completion with N2. Dried samples were resuspended in 150 μl of 50% MeOH, filtered (low protein binding 0.2 μm, 4 mm, PTFE; Millipore), and diluted 100 fold prior to LC-MS/MS analysis on the QTRAP 6500 using method 1 and a 5 μl injection volume.
Enzyme assays using the purified MND enzyme protein produced in PLUSE cells were done, in duplicate, as indicated above with the following exceptions: 10 μl of 100 μM codeine standard was added to each assay, prior to extraction, as an internal standard. Dried extracts were resuspended in 200 μl of 50% MeOH, filtered (0.2 μm, 4 mm, PTFE, Millipore). Samples were diluted 50 fold prior to a 5 μl injection onto the QTRAP 6500 using method 1.

Series [3] is described as follows: Proteinase K treatment and cofactor addition, conversion of thebaine to northebaine. It counts as biochemical. Particulars: 1500 pmol cofactor added to no enzyme and pET28a empty vector controls. On the procedure:
The first of two assays performed included adding 1500 pmol FAD to the 200 MND enzyme assay including 100 μl purified MND (˜36 μg) and 1500 pmol thebaine in 30 mM potassium phosphate buffer pH 7.0 with and without a prior 1 hour digest (of MND enzyme) with Proteinase K. Controls included a no enzyme control, FAD addition to a no enzyme control, a pET28a empty vector control, a pET28a empty vector control with FAD, and a pET28a empty vector control digested with Proteinase K followed by FAD addition. Assays were allowed to incubate for 20 minutes and then processed as in section 23.0. A second set of assays was performed, in duplicate, to validate the results found in the previous assay in addition to testing more cofactors. This assay included the following conditions; MND enzyme, MND enzyme pre-digested with Proteinase K for 1 hour, MND enzyme digested with Proteinase K in the presence of 1% SDS and 10 mM EDTA, MND enzyme with 1% SDS and 10 mM EDTA (no Proteinase K pre-digestion), pET28a empty vector, pET28a empty vector pre-digested with Proteinase K for 1 hour, pET28a empty vector digested with Proteinase K in the presence of 1% SDS and 10 mM EDTA, MND enzyme with the addition of 1500 pmol FMN, pET28a empty vector with the addition of 1500 pmol FMN, MND enzyme with the addition of 1500 pmol PLP and pET28a empty vector with the addition of 1500 pmol PLP. Assays were allowed to proceed for 20 minutes prior to processing and quantitation as described in section 23.0.

Substrate in series [4]: COC1=CC=C2[C@H]3Cc4ccc(OC)c5c4[C@@]2(CCN3C)[C@H]1O5
In words: purified protein, by the assay type. Particulars: pH 7.0; 30.0 °C.

Setting [5] is: overnight enzyme assay at 30° C., 7.5 μM substrate, ~36 μg purified MND enzyme, pH 8.0, reduction of substrate vs empty vector control, percentages approximate.

Consider `COc1ccc(C[C@H]2c3cc(OC)c(OC)cc3CCN2C)cc1O` [Laudanine (Laudanidine)], for which, in the series with MND enzyme [1] (setting [5]), the Percent demethylated is reported as 14%.
`CN(C)Cc1c[nH]c2ccccc12` [Gramine]: the “substrate acceptance / detectable N-demethylase activity (in words)” value in the series with MND enzyme [1] is reported as “accepted”. In the series on MND enzyme [1] (setting [5]), this molecule showed a Percent demethylated of 51%.
With `COc1ccc2c3c1O[C@H]1C(=O)C=C[C@H]4[C@@H](C2)N(C)CC[C@]314` [Codeinone], in the series with MND enzyme [1] (setting [5]), the Percent demethylated is 100%.
Turning to `COC1=C[C@]23CCN(C)[C@H](Cc4ccc(OC)c(O)c42)C3=CC1=O` [Salutaridine], in the series on MND enzyme [1] (setting [5]), the Percent demethylated was determined as 100%.
Turning to `COc1ccc(C[C@H]2c3cc(O)c(OC)cc3CCN2C)cc1O` [(S)-Reticuline], the Percent demethylated in the series with MND enzyme [1] (setting [5]) was 55%.
Consider `COC1=CC=C2[C@H]3Cc4ccc(O)c5c4[C@@]2(CCN3C)[C@H]1O5` [Oripavine], for which, in the series on MND enzyme [1] (setting [5]), the Percent demethylated is 100%.
`COC1=CC=C2[C@H]3Cc4ccc(OC)c5c4[C@@]2(CCN3C)[C@H]1O5` [Thebaine] had a Percent demethylated with MND enzyme [1] (setting [5]) of 100%. Further, the “conversion to N-demethylthebaine (northebaine)” value in the series on MND enzyme [2] (aqueous solution at 30° C.) is recorded as 100%. Moreover, the “substrate depletion (in words)” value with MND enzyme [2] (overnight assay, purified MND enzyme, 1500 pmol thebaine, pH 8.0, 30° C.) was “depleted completely”.
`CC(=O)Oc1ccc2c3c1O[C@H]1[C@@H](OC(C)=O)C=C[C@H]4[C@@H](C2)N(C)CC[C@@]341` [Heroin] came in with a Percent demethylated in the series with MND enzyme [1] (setting [5]) of 70%.
On to `CN1[C@@H]2C[C@@H](OC(=O)[C@H](CO)c3ccccc3)C[C@H]1[C@@H]1O[C@@H]12` [Scopolamine], for which the “substrate acceptance / detectable N-demethylase activity (in words)” value in the series with MND enzyme [1] is recorded as “accepted”. The same molecule yielded a Percent demethylated with MND enzyme [1] (setting [5]) of 65%.
Turning to `COc1cc(C[C@@H]2c3cc(O)c(OC)cc3CCN2C)ccc1O` [Orientaline], in the series on MND enzyme [1] (setting [5]), the Percent demethylated came out at 100%.
`CN1[C@@H](CC(=O)c2ccccc2)CCC[C@H]1C[C@H](O)c1ccccc1` [(−)-Lobeline]: the “substrate acceptance / detectable N-demethylase activity (in words)” value in the series with MND enzyme [1] is on record as “accepted”. Further, in the series on MND enzyme [1] (setting [5]), the Percent demethylated is 20%.
For `COc1cc2c3c(c1O)-c1c(cccc1OC)C[C@@H]3N(C)CC2` [Isothebaine] the same measures were “accepted” and 35%.
With `CN1CC[C@]23c4c5ccc(O)c4O[C@H]2[C@@H](O)C=C[C@H]3[C@H]1C5` [Morphine], the Percent demethylated in the series with MND enzyme [1] (pH 8) was determined as 100%.
In the series with MND enzyme [1] (setting [5]), `COC1=C[C@]23CCN(C)[C@H](Cc4ccc(OC)c(O)c42)C3=C[C@@H]1O` [Salutaridinol] yielded a Percent demethylated of 100%.
In the series with MND enzyme [1] (setting [5]), Isoorientaline yielded a Percent demethylated of 86%.
Turning to `COc1cc2c(cc1O)[C@H](CCc1cc(O)c(OC)c(OC)c1)N(C)CC2` [Autumnaline], in the series on MND enzyme [1] (setting [5]), the Percent demethylated was found to be 11%.
The molecule `COc1ccc2c3c1O[C@H]1[C@@H](O)C=C[C@H]4[C@@H](C2)N(C)CC[C@@]341` [Codeine] registered a Percent demethylated in the series on MND enzyme [1] (setting [5]) of 100%.
With `Cc1ncc(COP(=O)(O)O)c(C=O)c1O` [PLP], the “background demethylation of thebaine to northebaine on cofactor addition” value (from here on “background demethylation of thebaine”) in series [3] is given as “did not”.
In the series with MND enzyme [1] (setting [5]), `COc1ccc2c(c1OC)C(=O)O[C@@H]2[C@H]1c2c(cc3c(c2OC)OCO3)CCN1C` [Noscapine (Narcotine)] displayed a Percent demethylated of 20%.
Still for that read-out and setting: to `COc1ccc(C[C@@H]2c3cc(O)c(OC)cc3CCN2C)cc1O` [(R)-Reticuline] belongs 25%; to `COc1ccc(CC2c3cc(OC)c(O)cc3CCN2C)cc1O` (centres unmarked) [Protosinomenine], 60%.
For `CN1[C@@H]2CC[C@H]1CC(=O)C2` [Tropinone], the “substrate acceptance / detectable N-demethylase activity (in words)” value in the series with MND enzyme [1] is on record as “accepted”. The Percent demethylated with MND enzyme [1] (setting [5]) amounted to 40%.
Regarding `Cc1cc2nc3c(=O)[nH]c(=O)nc-3n(C[C@H](O)[C@H](O)[C@H](O)COP(=O)(O)OP(=O)(O)OC[C@H]3O[C@@H](n4cnc5c(N)ncnc54)[C@H](O)[C@@H]3O)c2cc1C` [FAD, flavin adenine dinucleotide], the “background demethylation of thebaine” value in series [3] is reported as “slight increase”.
In the case of `CN1[C@@H]2CC[C@H]1C[C@@H](OC(=O)[C@H](CO)c1ccccc1)C2` [Hyoscyamine], the “substrate acceptance / detectable N-demethylase activity (in words)” value in the series with MND enzyme [1] was “accepted”. The Percent demethylated in the series on MND enzyme [1] (setting [5]) worked out at 18%.
For `CN1CC[C@]23c4c5ccc(O)c4O[C@H]2C(=O)C=C[C@H]3[C@H]1C5` [Morphinone], in the series with MND enzyme [1] (setting [5]), the Percent demethylated stood at 100%.
On the same count and under the same terms, to `COc1ccc(CC2c3cc(OC)c(OC)cc3CCN2C)cc1OC` (centres unmarked) [Laudanosine] belongs 31%.
In the case of `COc1ccc2c3c1O[C@H]1C[C@@H](O)C=C[C@@]31CCN(C)C2` [Galanthamine], the “substrate acceptance / detectable N-demethylase activity (in words)” value in the series on MND enzyme [1] was “accepted”. Further, the Percent demethylated with MND enzyme [1] (setting [5]) is on record as 27%.
As to `CN1CC[C@]23c4c5ccc(O)c4O[C@H]2C(=O)CC[C@@]3(O)[C@H]1C5` [Oxymorphone], the Percent demethylated in the series on MND enzyme [1] (setting [5]) was 73%.
Take `Cc1cc2nc3c(=O)[nH]c(=O)nc-3n(C[C@H](O)[C@H](O)[C@H](O)COP(=O)(O)O)c2cc1C` [FMN, flavin mononucleotide]: the “background demethylation of thebaine” value in series [3] is recorded as “increase in background activity”.

B1: Methylobacterium Thebainfresser morphinan N-demethylase (MND), SEQ ID NO: 2, His-tag purified from E. coli PLUSE cells (Methylobacterium thebainfresser) (protein)
chain: MTEKTPKLGSEAANKLGLEADISRRDMVGGVLIGAGAALLASVAPGAINRALAEGPSRLPPVRGSGTGWRGIEIADDWQGPGGIGDYSKSNGNTGKVIRDAHAGIRNHEFEKRLATASDVNEKYDVIIVGAGISGLHSAYDLLRQRPNIKILMLDNHAIFGGEAKQNKMEVDGQALYGGQGPTLYSFVGDDLPSWKGNPALASIMELKTYPKEFGLPTETTWSDKKTDVKVPVDLWFSMASPSQTDIAYRWEGSGLVKNPLLNSFRDAPVSQKSKDAIALMLAVDNGAKRPVEPVGDVSTWVDNMTYAEFLKKVYGADDEAVQLVDQIDVVGTAGLGGDVFNASLAALGLNQYGGIELWNGGLQGLSLPTGNGGVGRSILRKFMPGAIKGGTSLTDTLFGDVNWDVLDHANNNVRIRLNSTVVGVQNNETPTGTKDATVFFLHDNRLYKAKGKAVIMGTPQQVNRNVCLNLPNHLSEAMGDFHHAPILVVNVALRNWKSMEKAGVSGLRWFGEYPGIGQIVRSMVIDGKEIMPCDPSKPAVMTFYIPMNQATRGMPRGEQAMTARHMLFNLTFADIELLIRDQLTRAFGSYGFDAKRDIAAIVANRWGHALVCAGPGFYTGLNGKPPVSKVITAGWDRVAFGHSDLSGRQAWTVAVNYARTAVANVFPKI
On to B1, for which, in series [4], the Michaelis constant (Km) was found to be 0.97 µM, the Vmax was determined as 0.32 pmol/s and the catalytic constant (kcat) came to 0.00065 s⁻¹.
